{"source": "patent US20110311601A1", "about": "“ANTIMICROBIAL MEDICAL DEVICES” (priority 2010, published 2011)", "experiment_in_all_cases": "micro-dilution assay (MBC, LD90)", "key": {"[1]": {"test_system": "Streptococcus pneumoniae ATCC 33400", "assay_type": "cell-based", "in_short": "(§1)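 hβD2, final 0.0125–100 mg/l, 2 h in 10 mM Na phosphate pH 7.2 with 10^4 cells/ml; 37° C bacteria, 30° C fungi. Read-out: CFU on BHI plates overnight, normalised to no-peptide control. MBC 99.9% kill; LD90 90% kill; n = 5.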"}, "[2]": {"test_system": "Serratia marcescens Mero 041/145 (wild-type)", "assay_type": "cell-based", "in_short": "as §1"}, "[3]": {"test_system": "Enterobacter cloacae Va 11263/03 (wild-type)", "assay_type": "cell-based", "in_short": "as §1"}, "[4]": {"test_system": "Proteus vulgaris UR 1464/03 (wild-type)", "assay_type": "cell-based", "in_short": "as §1"}, "[5]": {"test_system": "Morganella morganii RV B4/97", "assay_type": "cell-based", "in_short": "as §1"}, "[6]": {"test_system": "Proteus mirabilis UR 1354/03 (wild-type)", "assay_type": "cell-based", "in_short": "as §1"}, "[7]": {"test_system": "Pseudomonas putida BK 4912", "assay_type": "cell-based", "in_short": "as §1"}, "[8]": {"test_system": "Campylobacter jejuni ATCC 33560", "assay_type": "cell-based", "in_short": "as §1"}, "[9]": {"test_system": "Staphylococcus aureus (MRSA 358) (wild-type)", "assay_type": "cell-based", "in_short": "as §1"}, "[10]": {"test_system": "E. coli ATCC 25922", "assay_type": "cell-based", "in_short": "as §1"}, "[11]": {"test_system": "Candida albicans C.a 14 (wild-type)", "assay_type": "cell-based", "in_short": "as §1"}, "[12]": {"test_system": "Proteus vulgaris BK 8730/99 (wild-type)", "assay_type": "cell-based", "in_short": "as §1"}, "[13]": {"test_system": "E. coli (ESBL 9) UR 2217/03 (wild-type)", "assay_type": "cell-based", "in_short": "as §1"}, "[14]": {"test_system": "Staphylococcus aureus (MRSA 355) (wild-type)", "assay_type": "cell-based", "in_short": "as §1"}, "[15]": {"test_system": "Candida glabrata UR 5836/02 (wild-type)", "assay_type": "cell-based", "in_short": "as §1"}, "[16]": {"test_system": "Stenotrophomonas maltophilia ATCC 17666", "assay_type": "cell-based", "in_short": "as §1"}, "[17]": {"test_system": "Providencia stuartii NCTC 10318", "assay_type": "cell-based", "in_short": "as §1"}, "[18]": {"test_system": "Proteus vulgaris Mero 103/067 (wild-type)", "assay_type": "cell-based", "in_short": "as §1"}, "[19]": {"test_system": "Serratia marcescens Mero 103/013 (wild-type)", "assay_type": "cell-based", "in_short": "as §1"}, "[20]": {"test_system": "Enterococcus faecium (VRE) Ulm 68 (wild-type)", "assay_type": "cell-based", "in_short": "as §1"}, "[21]": {"test_system": "Serratia marcescens Mero 060/148 (wild-type)", "assay_type": "cell-based", "in_short": "as §1"}, "[22]": {"test_system": "Stahylococcus aureus ATCC 12600", "assay_type": "cell-based, Staphylococcus aureus", "protocol": "The anti-bacterial activity of hβD2 was tested by a micro-dilution assay. Bacteria and fungi were streaked from a glycerol stock onto a Brain Heart Infusion (BHI) agar plate (3.7% w/v BHI Bouillon, 1.5% w/v Agar), grown overnight at 37° C. and 30° C., respectively and subsequently used to inoculate 40 ml of 3.7% w/v BHI Bouillon without any antibiotics in 100 ml flasks. Fresh cells were harvested by centrifugation at 16000 rpm for 10 min and washed twice with 10 mM sodium phosphate buffer, pH 7.2. The optical density was adjusted to 10^4 cells/ml. For anti-bacterial testing hβD2 was incubated in one well of a microtiter plate containing 100 μl of the bacterial suspension. Therefore, ten microlitres of hβD2 solution with a range of final concentrations tested from 0.0125 up to and including 100 mg/l was added to the bacterial suspension and incubated at 37° C. and 30° C., respectively for 2 h before colony forming units were determined. Colony forming units (CFU) were determined after plating 100 μl of a 1:100 dilution of the bacterial suspension on petri dishes with BHI medium and incubating them overnight at 37° C. For every group of the hβD2 added samples and the controls, 5 independent anti-bacterial assays were performed. A control (NC) of bacterial growth was examined for every independent assay. […]"}}, "note": "Where no end group is shown, it is not given here."}
{"substance": "human β-defensin-2 (GIGDPVTCLKSGAICHPVFCPRRYKQIGTCGLPGTKCCKKP; ends and bridges not checked; cysteine pairing not given here) [hβD2, recombinant hβD2]", "values": [{"measurement": "LD 90 = μg/ml 90% killing", "setting": "[1]", "result": 25, "unit": "µg/mL"}, {"measurement": "MBC = μg/ml 99.9% killing", "setting": "[1]", "result": 50, "unit": "µg/mL"}, {"measurement": "LD 90 = μg/ml 90% killing", "setting": "[2]", "result": 25, "unit": "µg/mL"}, {"measurement": "MBC = μg/ml 99.9% killing", "setting": "[2]", "result": 100, "unit": "µg/mL"}, {"measurement": "LD 90 = μg/ml 90% killing", "setting": "[3]", "result": 12.5, "unit": "µg/mL"}, {"measurement": "MBC = μg/ml 99.9% killing", "setting": "[3]", "result": 50, "unit": "µg/mL"}, {"measurement": "LD 90 = μg/ml 90% killing", "setting": "[4]", "result": 3.125, "unit": "µg/mL"}, {"measurement": "MBC = μg/ml 99.9% killing", "setting": "[4]", "result": 12.5, "unit": "µg/mL"}, {"measurement": "LD 90 = μg/ml 90% killing", "setting": "[5]", "result": 100, "unit": "µg/mL"}, {"measurement": "MBC = μg/ml 99.9% killing", "setting": "[5]", "result": ">100", "unit": "µg/mL"}, {"measurement": "LD 90 = μg/ml 90% killing", "setting": "[6]", "result": 100, "unit": "µg/mL"}, {"measurement": "MBC = μg/ml 99.9% killing", "setting": "[6]", "result": ">100", "unit": "µg/mL"}, {"measurement": "LD 90 = μg/ml 90% killing", "setting": "[7]", "result": 6.25, "unit": "µg/mL"}, {"measurement": "MBC = μg/ml 99.9% killing", "setting": "[7]", "result": 12.5, "unit": "µg/mL"}, {"measurement": "LD 90 = μg/ml 90% killing", "setting": "[8]", "result": 3.125, "unit": "µg/mL"}, {"measurement": "MBC = μg/ml 99.9% killing", "setting": "[8]", "result": 6.25, "unit": "µg/mL"}, {"measurement": "LD 90 = μg/ml 90% killing", "setting": "[9]", "result": 100, "unit": "µg/mL"}, {"measurement": "MBC = μg/ml 99.9% killing", "setting": "[9]", "result": ">100", "unit": "µg/mL"}, {"measurement": "LD 90 = μg/ml 90% killing", "setting": "[10]", "result": 6.25, "unit": "µg/mL"}, {"measurement": "MBC = μg/ml 99.9% killing", "setting": "[10]", "result": 12.5, "unit": "µg/mL"}, {"measurement": "LD 90 = μg/ml 90% killing", "setting": "[11]", "result": 12.5, "unit": "µg/mL"}, {"measurement": "MBC = μg/ml 99.9% killing", "setting": "[11]", "result": 25, "unit": "µg/mL"}, {"measurement": "LD 90 = μg/ml 90% killing", "setting": "[12]", "result": 100, "unit": "µg/mL"}, {"measurement": "MBC = μg/ml 99.9% killing", "setting": "[12]", "result": ">100", "unit": "µg/mL"}, {"measurement": "LD 90 = μg/ml 90% killing", "setting": "[13]", "result": 12.5, "unit": "µg/mL"}, {"measurement": "MBC = μg/ml 99.9% killing", "setting": "[13]", "result": 25, "unit": "µg/mL"}, {"measurement": "LD 90 = μg/ml 90% killing", "setting": "[14]", "result": 25, "unit": "µg/mL"}, {"measurement": "MBC = μg/ml 99.9% killing", "setting": "[14]", "result": 100, "unit": "µg/mL"}, {"measurement": "LD 90 = μg/ml 90% killing", "setting": "[15]", "result": 6.25, "unit": "µg/mL"}, {"measurement": "MBC = μg/ml 99.9% killing", "setting": "[15]", "result": 50, "unit": "µg/mL"}, {"measurement": "LD 90 = μg/ml 90% killing", "setting": "[16]", "result": 6.25, "unit": "µg/mL"}, {"measurement": "MBC = μg/ml 99.9% killing", "setting": "[16]", "result": 50, "unit": "µg/mL"}, {"measurement": "LD 90 = μg/ml 90% killing", "setting": "[17]", "result": 100, "unit": "µg/mL"}, {"measurement": "MBC = μg/ml 99.9% killing", "setting": "[17]", "result": ">100", "unit": "µg/mL"}, {"measurement": "LD 90 = μg/ml 90% killing", "setting": "[18]", "result": 100, "unit": "µg/mL"}, {"measurement": "MBC = μg/ml 99.9% killing", "setting": "[18]", "result": ">100", "unit": "µg/mL"}, {"measurement": "LD 90 = μg/ml 90% killing", "setting": "[19]", "result": 100, "unit": "µg/mL"}, {"measurement": "MBC = μg/ml 99.9% killing", "setting": "[19]", "result": ">100", "unit": "µg/mL"}, {"measurement": "LD 90 = μg/ml 90% killing", "setting": "[20]", "result": 100, "unit": "µg/mL"}, {"measurement": "MBC = μg/ml 99.9% killing", "setting": "[20]", "result": ">100", "unit": "µg/mL"}, {"measurement": "LD 90 = μg/ml 90% killing", "setting": "[21]", "result": 50, "unit": "µg/mL"}, {"measurement": "MBC = μg/ml 99.9% killing", "setting": "[21]", "result": 100, "unit": "µg/mL"}, {"measurement": "LD 90 = μg/ml 90% killing", "setting": "[22]", "result": 25, "unit": "µg/mL"}, {"measurement": "MBC = μg/ml 99.9% killing", "setting": "[22]", "result": 100, "unit": "µg/mL"}]}
